SMILES strings stand for the structures.

The subject of one data set is Bacillus pumilus strain K-1. Put plainly: Inhibition of bacterial growth, filter paper on inoculated agar plates. The class given is cell-based. To be noted: Bacillus pumilus, K1, 72 h, Table IV; 10^-3 molar, three days, differing anions; read-out: Diameter of Inhibition. The protocol: Nutrient broth was prepared by mixing 8 grams of BACTO dehydrated nutrient broth per liter of distilled water. […] Samples of the nutrient broth were then inoculated with Bacillus pumilus strain K-1 culture. […]
Nutrient agar was prepared by mixing 23 grams of BACTO nutrient agar per liter of distilled water. The nutrient agar was sterilized in the same way as the nutrient broth. After it has cooled to about 45° C. 250 ml of the nutrient agar solution was aeseptically inoculated with 5 ml of the Bacillus pumilus, K-1 culture prepared in (A), above. Plates of the inoculated nutrient agar were then poured and allowed to harden.
[…] To minimize possible photocatalyzed reactions of the dyes, all preparations were performed under yellow lights and all incubations were performed in the dark.
Schleider and Schuell #740-E filter paper (12.7 mm diameter) was dipped in the dye solution, touched to the side of the beaker to removed excess dye, and placed in the center of the inoculated agar plates (prepared in (B) above). […] The plates were then examined to determine if bacterial growth had been affected by the dye-containing filter paper. […]
Control plates were prepared in which the filter paper contained methanol or a 0.2 molar aqueous solution of phenol. […]
As to `CCN1C(=CC=Cc2sc3ccccc3[n+]2CC)Sc2ccccc21` [17, ClO4^-], the zone of inhibition at 1000 µM was 19 mm.

Staying with this data set, now noted: Bacillus pumilus, K1, 72 h, Tables V and VI; 10^-3 molar, three days; read-out: Diameter of Inhibition.
As to `CCN1C(=CC=Cc2oc3cccc(OC(C)=O)c3[n+]2CC)Oc2cccc(OC(C)=O)c21` [7,4,4'-diacetoxy], the zone of inhibition at 1000 µM came out at 15 mm.

In the case of `CCN1C(=CC=Cc2oc3cccc(O)c3[n+]2CC)Oc2cccc(O)c21` [7,4,4'-dihydroxy], the zone of inhibition at 1000 µM is 13 mm.

On to `CCN1C(=CC=Cc2oc3ccc(OC(C)=O)cc3[n+]2CC)Oc2ccc(OC(C)=O)cc21` [7,5,5'-diacetoxy], for which the zone of inhibition at 1000 µM stood at 30.5 mm.

As for `CCN1C(=CC=Cc2oc3ccc(Br)cc3[n+]2CC)Oc2ccc(Br)cc21` [7,5,5'-dibromo], the zone of inhibition at 1000 µM amounted to 22.5 mm.

As for `CCN1C(=CC=Cc2oc3ccc(Cl)cc3[n+]2CC)Oc2ccc(Cl)cc21` [7,5,5'-dichloro], the zone of inhibition at 1000 µM is 26.5 mm.

In the case of `CCOc1ccc2c(c1)N(CC)C(=CC=Cc1oc3ccc(OCC)cc3[n+]1CC)O2` [7,5,5'-diethoxy], the zone of inhibition at 1000 µM was found to be 14 mm.

Take `CCc1ccc2c(c1)N(CC)C(=CC=Cc1oc3ccc(CC)cc3[n+]1CC)O2` [7,5,5'-diethyl]: the zone of inhibition at 1000 µM was determined as 23 mm.

Regarding `CCN1C(=CC=Cc2oc3ccc(O)cc3[n+]2CC)Oc2ccc(O)cc21` [7,5,5'-dihydroxy], the zone of inhibition at 1000 µM was 14 mm.

On to `CCN1C(=CC=Cc2oc3ccc(OC)cc3[n+]2CC)Oc2ccc(OC)cc21` [7,5,5'-dimethoxy], for which the zone of inhibition at 1000 µM is 23.5 mm.

Regarding `CCOc1ccc2c(c1)OC(=CC=Cc1oc3cc(OCC)ccc3[n+]1CC)N2CC` [7,6,6'-diethoxy], the zone of inhibition at 1000 µM came out at 16 mm.

As for `CCN1C(=CC=Cc2sc3cccc(OC)c3[n+]2CC)Sc2cccc(OC)c21` [17,4,4'-dimethoxy], the zone of inhibition at 1000 µM is 17.5 mm.

For the compound `CCN1C(=CC=Cc2sc3ccc(OC(C)=O)cc3[n+]2CC)Sc2ccc(OC(C)=O)cc21` [17,5,5'-diacetoxy], the zone of inhibition at 1000 µM came to 15 mm.

In the case of `CCN1C(=CC=Cc2sc3ccc(Br)cc3[n+]2CC)Sc2ccc(Br)cc21` [17,5,5'-dibromo], the zone of inhibition at 1000 µM came to 13.5 mm.

As to `CCN1C(=CC=Cc2sc3ccc(OC)cc3[n+]2CC)Sc2ccc(OC)cc21` [17,5,5'-dimethoxy], the zone of inhibition at 1000 µM amounted to 14.5 mm.

In the case of `CCN1C(=CC=Cc2sc3ccc(C)cc3[n+]2CC)Sc2ccc(C)cc21` [17,5,5'-dimethyl], the zone of inhibition at 1000 µM worked out at 14 mm.

As to `CCN1C(=CC=Cc2sc3cc(OC(C)=O)ccc3[n+]2CC)Sc2cc(OC(C)=O)ccc21` [17,6,6'-diacetoxy], the zone of inhibition at 1000 µM is 17 mm.

Take `CCN1C(=CC=Cc2sc3cc(Cl)ccc3[n+]2CC)Sc2cc(Cl)ccc21` [17,6,6'-dichloro]: the zone of inhibition at 1000 µM was found to be 14 mm.

Regarding `CCOc1ccc2c(c1)SC(=CC=Cc1sc3cc(OCC)ccc3[n+]1CC)N2CC` [17,6,6'-diethoxy], the zone of inhibition at 1000 µM was 15 mm.

In the case of `CCN1C(=CC=Cc2sc3cc(F)ccc3[n+]2CC)Sc2cc(F)ccc21` [17,6,6'-difluoro], the zone of inhibition at 1000 µM was found to be 18 mm.

For the compound `CCN1C(=CC=Cc2sc3cc(O)ccc3[n+]2CC)Sc2cc(O)ccc21` [17,6,6'-dihydroxy], the zone of inhibition at 1000 µM was 15.5 mm.

As to `CCN1C(=CC=Cc2sc3cc(OC)ccc3[n+]2CC)Sc2cc(OC)ccc21` [17,6,6'-dimethoxy], the zone of inhibition at 1000 µM was 15 mm.

Take `CCN1C(=CC=Cc2sc3cc(C)ccc3[n+]2CC)Sc2cc(C)ccc21` [17,6,6'-dimethyl]: the zone of inhibition at 1000 µM amounted to 15 mm.

For the compound `CCN1C(=CC=Cc2sc3c(OC)cccc3[n+]2CC)Sc2c(OC)cccc21` [17,7,7'-dimethoxy], the zone of inhibition at 1000 µM came out at 14.5 mm.

As for `CCN1C(=CC=Cc2sc3c(N(C)C)cccc3[n+]2CC)Sc2c(N(C)C)cccc21` [17,7,7'-dimethylamino], the zone of inhibition at 1000 µM is 14 mm.

The data set is the same for the next values; noted with them: Tables V and VI; 10^-3 molar, three days.
`CCN1C(=CC=Cc2oc3ccc(NC(C)=O)cc3[n+]2CC)Oc2ccc(NC(C)=O)cc21` [7,5,5'-acetamido]: the “Diameter of Inhibition” value was “None”.

Consider `CN1C(=CC=Cc2oc3ccc(C(=O)O)cc3[n+]2C)Oc2ccc(C(=O)O)cc21` [7,5,5'-dicarboxy-N,N'-methyl], for which the “Diameter of Inhibition” value is on record as “None”.

For the compound `CN1C(=CC=Cc2oc3ccc(C#N)cc3[n+]2C)Oc2ccc(C#N)cc21` [7,5,5'-dicyano-N,N'-methyl], the “Diameter of Inhibition” value is reported as “None”.

For `CN1C(=CC=Cc2oc3ccc([N+](=O)[O-])cc3[n+]2C)Oc2ccc([N+](=O)[O-])cc21` [7,5,5'-dinitro-N,N'-methyl], the “Diameter of Inhibition” value is reported as “None”.

For `CCN1C(=CC=Cc2oc3ccc(-c4ccccc4)cc3[n+]2CC)Oc2ccc(-c3ccccc3)cc21` [7,5,5'-diphenyl], the “Diameter of Inhibition” value is given as “None”.

`CCN1C(=CC=Cc2oc3ccc(S(=O)(=O)[O-])cc3[n+]2CC)Oc2ccc(S(=O)(=O)O)cc21` [7,5,5'-disulfo]: the “Diameter of Inhibition” value was “None”.

On to `CN1C(=CC=Cc2oc3cc([N+](=O)[O-])ccc3[n+]2C)Oc2cc([N+](=O)[O-])ccc21` [7,6,6'-dinitro-N,N'-methyl], for which the “Diameter of Inhibition” value is listed as “None”.

With `CCN1C(=CC=Cc2oc3cc(-c4ccccc4)ccc3[n+]2CC)Oc2cc(-c3ccccc3)ccc21` [7,6,6'-diphenyl], the “Diameter of Inhibition” value was “None”.

Turning to `CCN1C(=CC=Cc2oc3c(-c4ccccc4)cccc3[n+]2CC)Oc2c(-c3ccccc3)cccc21` [7,7,7'-diphenyl], the “Diameter of Inhibition” value is “None”.

Take `CCN1C(=CC=Cc2sc3cc(OC)c(OC)cc3[n+]2CC)Sc2cc(OC)c(OC)cc21` [17,5,5',6,6'-tetramethoxy]: the “Diameter of Inhibition” value is reported as “None”.

Take `CCN1C(=CC=Cc2sc3cc(NC(C)=O)ccc3[n+]2CC)Sc2cc(NC(C)=O)ccc21` [17,6,6'-diacetamido]: the “Diameter of Inhibition” value is on record as “None”.

As for `CN1C(=CC=Cc2sc3cc(N)ccc3[n+]2C)Sc2cc(N)ccc21` [17,6,6'-diamino-N,N'-dimethyl], the “Diameter of Inhibition” value was “None”.

On to `CCN1C(=CC=Cc2sc3cc(Br)ccc3[n+]2CC)Sc2cc(Br)ccc21` [17,6,6'-dibromo], for which the “Diameter of Inhibition” value is on record as “None”.

On to `CN1C(=CC=Cc2sc3cc(C#N)ccc3[n+]2C)Sc2cc(C#N)ccc21` [17,6,6'-dicyano-N,N'-dimethyl], for which the “Diameter of Inhibition” value was “None”.

Turning to `CCN1C(=CC=Cc2sc3cc(S(=O)(=O)O)ccc3[n+]2CC)Sc2cc(S(=O)(=O)[O-])ccc21` [17,6,6'-disulfo], the “Diameter of Inhibition” value is recorded as “None”.

As to `CCN1C(=CC=Cc2sc3cc(I)ccc3[n+]2CC)Sc2cc(I)ccc21` [17, 6.6'-diiodo], the “Diameter of Inhibition” value is listed as “None”.

Tested on in a further data set: not given
Experiment: not given
To be noted: not told.
Regarding `CCN1C(=CC=Cc2oc3ccc(OC(C)=O)cc3[n+]2CC)Oc2ccc(OC(C)=O)cc21` [7,5,5'-diacetoxy], the ER is listed as -1.18.

Regarding `CN1C(=CC=Cc2oc3ccc(C#N)cc3[n+]2C)Oc2ccc(C#N)cc21` [7,5,5'-dicyano-N,N'-methyl], the ER entry is listed as “-.99”.

As for `CCN1C(=CC=Cc2oc3ccc(S(=O)(=O)[O-])cc3[n+]2CC)Oc2ccc(S(=O)(=O)O)cc21` [7,5,5'-disulfo], the ER is -1.27.

With `CCN1C(=CC=Cc2sc3cc(Br)ccc3[n+]2CC)Sc2cc(Br)ccc21` [17,6,6'-dibromo], the ER entry was “-.88”.

As to `CCN1C(=CC=Cc2sc3cc(Cl)ccc3[n+]2CC)Sc2cc(Cl)ccc21` [17,6,6'-dichloro], the ER entry is listed as “-.87”.

For `CCN1C(=CC=Cc2sc3cc(F)ccc3[n+]2CC)Sc2cc(F)ccc21` [17,6,6'-difluoro], the ER is given as -1.06.

For `CCN1C(=CC=Cc2sc3cc(I)ccc3[n+]2CC)Sc2cc(I)ccc21` [17, 6.6'-diiodo], the ER result is listed as “-.84”.
